Assay results published in PubChem BioAssay (NCI).
Where “and” joins values, the source holds several entries; their conditions need not be identical. Equal values may be shown once.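 All cell lines were grown in 96-well plates and treated with compound for 48 hours. Abbreviation: GI50, concentration required for 50% inhibition of growth. The concentration for full growth arrest is given as TGI.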 Calls of active or inactive are those of the source. No stated cut-off is given here; in the data, active means GI50 below about 0.43 µM; inactive means the rest.

What follows are compounds tested on MDA-MB-468 breast (assay: growth of human tumour cells (NCI), 48 h).
CC/C=C\C[C@H](F)C/C=C1/C(=O)C=C[C@@H]1C/C=C\CCCC(=O)OC gave a GI50 of 5260 nM and a TGI of 17200 nM.
Compound NC(=NCc1ccccc1)C(N=Nc1ccccc1)C(=O)NCc1ccccc1 (stereo not given) has a GI50 of 11500 nM and a TGI of 26400 nM.
Cc1ccc2oc(=O)cc(/C(=C3/C=CC=N3)c3ccc[nH]3)c2c1 was tested, and the GI50 was 243 nM and the TGI was 1020 nM.
CC1CCN(Cc2ccc(NC(=O)c3cc4ccc5cccnc5c4[nH]3)cc2)CC1 showed a GI50 of 2610 nM and a TGI of 16300 nM.
Compound CC(=O)/C(=C/c1ccccc1)C(=O)CC(C)C has a GI50 of 11100 nM and a TGI of 28000 nM.
Work on COc1ccc(/C=C2\CN(C(=O)C(Cl)Cl)C/C(=C\c3ccc(OC)cc3)C2=O)cc1 yielded a GI50 of 1040 nM and a TGI of 2740 nM.
Nc1c(C(=O)Nc2ccccc2)sc2nc3c(cc12)CCCCC3 gave a GI50 of 254 nM and a TGI of 946 nM.
O=C(CCl)NCCNc1nccc(Nc2ccc(S(=O)(=O)Nc3ccccn3)cc2)n1 showed a GI50 of 1050 nM and a TGI of 4530 nM.
Compound O=C1/C(=C/c2ccccc2)CN(C(=O)C(Cl)Cl)C/C1=C\c1ccccc1 has a GI50 of 342 nM and a TGI of 1380 nM.
O=C1/C=C/[C@@H](O)[C@@H]2C[C@@H](O)C[C@H]2/C=C/CCC[C@H](CCc2cccc3ccccc23)O1 showed a GI50 of 25.3 nM and a TGI of 86.7 nM.
COc1ccc(C=Nc2c(C(=O)Nc3cccc(Cl)c3C)sc3nc(C)c(C(=O)/C=C/c4ccc(OC)cc4)cc23)cc1 showed a GI50 of 200 nM and a TGI of 2200 nM.
For CC(C)(C)Nc1nc2c(OCCc3ccccc3)cccn2c1-c1cccc(Oc2ccccc2)c1, the GI50 was 2200 nM and the TGI was 6750 nM.
Compound CN(C)CCCN(CCC1CCCCC1)CCC1CCCCC1 has a GI50 of 1460 nM and a TGI of 3070 nM.
O=S(=O)(CCN1CCOCC1)Nc1cc(-c2ccc3ncnc(Nc4ccc(F)c(Cl)c4)c3c2)cnc1Cl showed a GI50 of 198 nM and a TGI of 1560 nM.
For CCCCCCCCCCCCCCCC1=NCCN1, the GI50 was 2220 nM and the TGI was 4070 nM.
In the case of CCCCC(CCCCCC(CCCC)NCc1ccc2c(c1)OCO2)NCc1ccc2c(c1)OCO2 (stereo not given), the GI50 is reported as 480 nM and the TGI is reported as 981 nM.
Cn1c(=O)c(Oc2ccc(F)cc2F)cc2cnc(NC(C)(C)CO)nc21 showed a GI50 of over 25000 nM and a TGI of over 25000 nM.
For C=C1C(=O)O[C@H]2[C@H]1CC/C(COC(=O)NCc1c[nH]c3ccccc13)=C\CC[C@@]1(C)O[C@@H]21, the GI50 was 820 nM and the TGI was 3580 nM.
In the case of COC1C(O)CC(OC2CC(OC3CC(O[C@@H]4C(=O)c5c(cc6cc(OC7CC(OC8CC(O)C(O)C(C)O8)C(O)C(C)O7)c(C)c(O)c6c5O)CC4[C@H](OC)C(=O)O)OC(C)C3O)OC(C)C2O)OC1C (stereo not given in full), the GI50 is reported as 2590 nM and the TGI is reported as 12400 nM.
O=C(O)[C@H](Cc1c[nH]c2ccccc12)N1C(=O)c2ccccc2C1=O was tested, and the GI50 was over 100000 nM and the TGI was over 100000 nM.
In the case of CSc1c(C2=C(c3cn(C)c4ccccc34)C(=O)NC2=O)c2ccccc2n1C, the GI50 is reported as 562 nM and the TGI is reported as over 25000 nM.
C[C@H]1/C(=C/C(=O)OCCN(C)C)CC[C@H]2[C@H]1C(=O)C[C@H]1C(C)(C)[C@@H](O)CC[C@]21C was tested, and the GI50 was over 100000 nM and the TGI was over 100000 nM.
For Oc1ccc(Nc2ccc3ccccc3c2)cc1, the GI50 was 8050 nM and the TGI was 26700 nM.
Work on CCCc1n(Cc2ccc3ccccc3c2)cc[n+]1Cc1ccc2ccccc2c1 yielded a GI50 of 277 nM and a TGI of 980 nM.
O=c1oc2ccc(I)cc2c(=O)n1-c1ccc(F)cc1F was tested, and the GI50 was 2230 nM and the TGI was 5690 nM.
CCN1CCC(Nc2ccnc3cc(Cl)ccc23)CC1 showed a GI50 of 13300 nM and a TGI of 32000 nM.
Compound Cn1ccnc1C(=O)/C=C/c1ccc(NC(=O)Nc2ccccc2)cc1 has a GI50 of 11400 nM and a TGI of 27500 nM.
Work on C=C1CC2(CC(c3ccccc3Cl)OC(c3ccccc3Cl)C2)OC1=O (stereo not given) yielded a GI50 of 1750 nM and a TGI of 3430 nM.
O=C(CC1(O)C(=O)N(Cc2ccccc2)c2ccc(Cl)cc21)c1ccc(C(=O)NCC2CCC3(CC2)OOC2(CCCCC2)OO3)cc1 (stereo not given) showed a GI50 of 1270 nM and a TGI of 4260 nM.
CCCCOC(=O)c1ccc(N)cc1 gave a GI50 of 84600 nM and a TGI of over 100000 nM.
For Cc1ccc(Nc2nccc(N(C)c3ccc4c(C)n(C)nc4c3)n2)cc1S(N)(=O)=O, the GI50 was 1770 nM and 2370 nM and 2200 nM and the TGI was > 100000 nM and > 10000 nM and 45200 nM.
For COc1cc2c(c(OC)c1OC)-c1ccc(O)cc1[C@@H](NC(C)=O)CC2, the GI50 was 24.4 nM and the TGI was 68.4 nM.
Compound COc1ccc2c(c1)c(-c1nc(-c3c[nH]c4ncccc34)cs1)cn2CCCN1CCCCC1 has a GI50 of 1860 nM and a TGI of 3560 nM.
Work on Cc1c(-c2ccc(C3CCCCC3)cc2)nc2ccc(F)cc2c1C(=O)O yielded a GI50 of 19100 nM and a TGI of over 100000 nM.
CCCCCCCCCCCCCCCCCc1nccn1CCOCCO was tested, and the outcome was “inactive”.
With COc1cc(C2CC(c3cccc(Nc4ccnc5cc(Cl)ccc45)c3)=NN2c2ccc(Cl)cc2)cc(OC)c1OC (stereo not given) the GI50 was 6290 nM and the TGI was over 100000 nM.
With COc1cc(OC)cc(-c2ccc(-c3ccc(C(=N)N)cn3)o2)c1 the GI50 was 1510 nM and the TGI was 3100 nM.
In the case of CCCCN1CCCC[C@@H]1C(=O)N[C@H](C(=O)N(C)[C@H](C[C@@H](OC(C)=O)c1nc(C(=O)NC2CCC(C(=O)OC)CC2)cs1)C(C)C)C(C)C (stereo not given in full), the GI50 is reported as 707 nM and the TGI is reported as 8180 nM.
